Data: patent US11771685B2, “Compounds for the treatment of neurological or mitochondrial diseases” (MUSC FOUNDATION FOR RESEARCH DEVELOPMENT, priority 2018, dated 2023)
pEC50: −log10 of the molar value. Converted amounts (≈) assume the structure as drawn.

Legend:
HT22 cells = assay: HT22 oxytosis (glutamate-induced cell death) neuroprotection assay; type: cell-based, mouse; details: 10 mM Glu
Description: The HT22 murine hippocampal cell system was chosen as an initial phenotypic screen for neuroprotective efficacy (Andreux et al., 2013; Andreux et al., 2014; Ohlow et al., 2017; Schubert and Maher, 2012). HT22 cells exposed to high extracellular Glu ([…]) undergo oxytosis, a non-apoptotic programmed cell death involving glutathione (GSH) depletion followed by ROS accumulation, oxidative damage, and a cytotoxic signaling cascade (Tan et al., 2001). Glu blocks the −xC cystine antiporter, causing (Tan et al., 2001) cells to accumulate severe oxidative stress, mitochondrial depolarization, disrupted mitochondrial morphology, and Ca^2+ influx (Tan et al., 2001; Yang et al., 2011; Cheng et al., 2013—cellular events that may occur in neurological diseases, including epilepsy. Thus, the immortalized HT22 cell line is a well-established model of neuronal oxidative stress (Sagara and Schubert, 1998; Matsumoto et al., 1996; Albrecht et al., 2010; Ha and Park, 2006; van Leyen et al., 2005; Tobaben et al., 2011), and a verified model of neurodegeneration to screen for potential neuroprotective drugs (Albrecht et al., 2010; van Leyen et al., 2008; Lewerenz et al., 2009; Lewerenz et al., 2003).
Consistent with that work, most of the 2-amino compounds achieved protection of HT22 cells against glutamate-induced oxytosis in the nM to μM range. […] Neuroprotection based on relative cell viability compared to +Glu and −Glu control cells was measured.
The HT22 neuronal cell line is a subclone of HT4, derived from the mouse hippocampus (Morimoto and Koshland, 1990). […] The HT22 cells used in this study were kindly provided by Dr. David Schubert (The Salk Institute for Biological Studies, La Jolla, CA, USA). The cells were grown in Dulbecco's Modified Eagle's Medium (DMEM/high glucose) supplemented with 10% fetal bovine serum (Hyclone) and 5 mL of antibiotic-antimycotic (Amphotericin B, Penicillin, and Streptomycin; Invitrogen) at 37° C. in 5% CO2.
HT-22 cells were seeded onto 96-well plates at 2.5×10^3 cells per well in 75 μL of medium and maintained at 37° C. in 5% CO2 overnight prior to the initiation of experimental treatments. For glutamate toxicity testing, cells were subsequently treated with 25 μL of medium containing glutamate (monosodium glutamate, Sigma, 1 M stock concentration in media, to achieve a final concentration of 10 mM) plus compound (stock in DMSO) and maintained at 37° C. in 5% CO2 for 24 hr. CellTiter-Blue® (resazurin cell viability assay reagent) was then added to each well at a final concentration of 0.125 mg/mL. The mixture was allowed to incubate for 2-4 hr until sufficient color change occurred. Cell viability was measured as a function of resorufin fluorescence intensity using a Tecan M200 Pro spectrophotometer, 560 nm/590 nm (excitation/emission). Cell viability was calculated as a percentage compared with untreated controls. EC50s were determined using GraphPad Prism's “log(inhibitor) vs. normalized response-Variable slope” function. Morphology of HT22 cells following treatments was determined by phase-contrast microscopy.
Statistical analyses were performed with GraphPad Prism 6 software. For the in vitro HT22 oxytosis assay, dose-response data were fit using GraphPad Prism's log(inhibitor) vs normalized response-variable slope parameters to determine EC50 values and 95% confidence intervals. For the zebrafish locomotive anti-seizure activity data, multiple comparisons were made using a one-way analysis of variance (ANOVA) with a Kruskal-Wallis Test, followed by the Dunn's Method to determine significant differences between all pairs or between control and experimental groups using the Dunn Method for Joint Ranking. Differences were considered statistically significant when p<0.05. Data from zebrafish experiments are represented as scatter dot plots of individual measurements, with means±standard deviation indicated by bars.

rat brain slices = assay: Rat in vitro spontaneous electrographic bursting model
Description: Synthesis for both compounds has been successfully scaled up. The pharmacokinetic (PK) parameters of these two Vitamin K analogs were determined via intravenous, intraperitoneal and oral administration in mice, and preliminary in vitro ADMET parameters were assessed (Table 3). These compounds are Ames-negative, have hepatic stability greater than 1 hour, can be formulated in oral solution and IV injection solution, can be synthesized in greater than 1 mg quantities, and have established brain PK. However, brain tissue binding was high for both compounds (97-98%). Both 3 (NT-181) and 17 (NT-102) have been tested for efficacy in the 6 Hz mouse seizure model at 22 mA and 32 mA, the corneal kindled mouse model, and the rat in vitro spontaneous electrographic bursting model of pharmacoresistance (Table 4). […] Preliminary studies with this new formulation reveal excellent solubility with full protection in the 6 Hz mouse seizure model at 22 mA, and quantification of both compounds (using this new formulation) in this model at 22 mA, 32 mA and 44 mA, is being performed as well as retesting in the corneal kindled model. […] Rat PK assessments will be performed, and seizure protection assessed in rat models in the ADD workflow such as the 6 Hz model and lamotrigine-resistant amygdala kindled mode.

Brain tissue binding = type: in vitro ADME; details: in vitro, read-out: Brain tissue binding (% bound)
[1] = Aqueous solubility at pH 7.4; type: physicochemical; details: pH 7.4, aqueous buffer; 50 mM phosphate buffer
[2] = Liver microsome stability; type: in vitro ADME; details: in vitro; for half-life: liver microsomes, read-out: Liver microsome stability (t1/2)
[3] = Mus musculus, HT-22, 24 h, HT22 cells, 24 hr, 95% CI in parentheses

For `CC(C)CCNC1=CC(=O)c2ccccc2C1=O` [Compound 17, 2-(Isopentylamino)naphthalene-1,4-dione], the pEC50 (HT22 cells; Mus musculus, HT-22, HT22 cells) was under 4.92, the Number protected (rat brain slices; 10 uM) was 0/9 at 10 uM and the fraction unbound (Brain tissue binding) was 0.02 to 0.03. The solubility [1] was 9.64 µg/mL (≈ 39.6 µM), the “Liver microsome stability (t1/2)” value ([2]; listed as NT-102) was over 1 h and the half-life [2] was over 1 h.
`CC(C)CCOC1=CC(=O)c2ccccc2C1=O` [Compound 25, 2-(Isopentyloxy)naphthalene-1,4-dione] gave a pEC50 (HT22 cells; HT22 cells, 24 hr, 95% CI in parentheses) of 7.62 and a pEC50 (HT22 cells; [3]) of about 7.62.
For `CCC#CCNC1=CC(=O)c2ccccc2C1=O` [Compound 3, 2-(Pent-2-yn-1-ylamino)naphthalene-1,4-dione], the pEC50 (HT22 cells; [3]) was 6.00, the Number protected (rat brain slices; 5 uM) was 0/8 at 5 uM and the fraction unbound (Brain tissue binding) was 0.02 to 0.03. For the same compound, the solubility [1] was 4.79 µg/mL (≈ 20 µM), the “Liver microsome stability (t1/2)” value ([2]; listed as NT-181) was over 1 h and the half-life [2] was over 1 h.
